This is an account of results in patent US10960054B2, “Fracture targeted bone regeneration through parathyroid hormone receptor stimulation” (Purdue Research Foundation, priority 2016, dated 2021).

Data set [1] has as its system femoral fracture callus. In words: Murine stabilized femoral fracture, microCT analysis of fracture callus. The conditions noted are these: for fracture callus densities / bone volume: 3 nmol/kg/day subcutaneous, 14, 28 or 56 days, FIG. 7. The class given is in vivo, mice.
In data set [2] the test system is MC3T3E1 cells. The data set is described as follows: Gene expression ratio of bone markers in MC3T3E1 cells. The data set is classed as cell-based. Here is the method: Referring now to FIG. 4, alkaline phosphatase (ALP) expression ratio for both targeted and non-targeted PTHrP were analyzed in MC3T3E1 cells. The ALP ratio is calculated by (Treated ALP expression/Vehicle control ALP expression). Higher expression levels are associated with greater osteoblast activity and is a key protein involved in bone mineralization.
Referring now to FIG. 5, osteopontin (OPN) expression ratio for both targeted and non-targeted PTHrP were analyzed in MC3T3E1 cells. The OPN ratio is calculated by (Treated OPN expression/Vehicle control OPN expression). Higher expression levels are associated with greater osteoblast activity and is a key protein involved in bone mineralization.
Referring now to FIG. 6, gene expression ratio of several key bone markers for both targeted and non-targeted PTHrP were analyzed in MC3T3E1 cells. Activity markers include alkaline phosphatase (ALP), Collagen I-alpha (Col1-alpha), osteocalcin (OC), osteoprotegerin (OPG), osteopontin (OPN, and Osterix (OSX). The gene expression ratio is calculated by (Treated gene expression/Vehicle control gene expression). The targeted PTHrP has activity as low as 1 pM.

Data set [3] concerns liver and kidneys. In words: Blind histopathology of liver and kidney after 28 days of treatment. Particulars: 31 nmol/kg/day subcutaneous.
Method: Referring now to Table 1, mice were treated with 31 nmol/kg/day subcutaneous injections of PTHrPD10 (“Targeted Drug”) or saline. Swiss ND4 mice were treated for 28 days. Mice were sacrificed at the end of the study and liver and kidneys were excised. Organs were fixed in formalin and paraffin sections were made from each. A veterinary pathologist performed a randomized blind analysis on the organs.
Data set [4] deals with T1, PTHR1 (Homo sapiens, UniProt Q03431).
T1 sequence (Q03431 27-593): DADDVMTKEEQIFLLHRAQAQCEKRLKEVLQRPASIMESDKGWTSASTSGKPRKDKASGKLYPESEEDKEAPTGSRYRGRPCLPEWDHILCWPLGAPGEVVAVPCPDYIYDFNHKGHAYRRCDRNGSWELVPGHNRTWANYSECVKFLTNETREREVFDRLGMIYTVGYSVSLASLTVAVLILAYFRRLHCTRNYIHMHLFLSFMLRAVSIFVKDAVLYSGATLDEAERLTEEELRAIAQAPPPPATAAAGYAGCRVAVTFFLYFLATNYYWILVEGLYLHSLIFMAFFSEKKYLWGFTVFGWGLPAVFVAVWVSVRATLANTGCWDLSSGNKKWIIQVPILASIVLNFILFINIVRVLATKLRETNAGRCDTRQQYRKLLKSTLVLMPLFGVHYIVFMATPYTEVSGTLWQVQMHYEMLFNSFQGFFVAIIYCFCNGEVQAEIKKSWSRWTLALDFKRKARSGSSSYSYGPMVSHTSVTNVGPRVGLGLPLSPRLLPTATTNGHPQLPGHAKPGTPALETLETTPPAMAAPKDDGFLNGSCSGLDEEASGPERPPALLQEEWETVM
The conditions noted are these: time-course washout assay; cited from earlier work.

Data set [5] concerns the target T2, PTHR1 (R^0 conformation) (Homo sapiens, UniProt Q03431).
T2 sequence (Q03431 27-593): T1 sequence (Q03431 27-593)
The conditions noted are these: direct comparative studies; cited from earlier work.

With “SVSEIQLMHNLGKHLNSMERVEWLRKKLQDVHNFVALGAPLAPRDADDDDDDDDDD (PTH1-46D10) [PTH 1-46D10]”, in data set [1] (2 weeks, fracture callus, vs saline, FIG. 3), the “bone density (microCT)” value is on record as “statistically denser than saline controls”.

Consider “VSEHQLLHDKGKSIQDLRRRFFLHHLIAEIHTAGIRATSEVSPNSDDDDDDDDDD [PTHrP1-46D10]”, for which the “fracture callus densities / bone volume” value in data set [1] (listed as targeted PTHrP) is on record as “Greater densities can be observed in the targeted PTHrP over the free PTHrp at every time point”; in data set [1] (listed as targeted drug), “not only improves fracture healing but that it also accelerates fracture healing”. Moreover, in data set [1] (31 nmol/kg/day, daily for 4 weeks, closed femoral fracture, FIG. 1), the “bone densities around fractures (microCT)” value is “increased bone densities around fractures significantly higher than that of free PTHrP and Saline”. The “trabecular spacing (microCT)” value in data set [1] (4 weeks, fracture callus, vs saline, FIG. 2) is “statistically tighter spacing than does the saline control”. Also, the “concentration at which gene expression activity is seen (activity as low as)” value in data set [2] (ALP, Col1-alpha, OC, OPG, OPN, OSX, FIG. 6) is on record as at most 1 pM. In data set [2] (treated/vehicle control, FIG. 5), the “osteopontin (OPN) expression ratio” value is “does not reduce the efficacy of the drug”. Further, in data set [2] (treated/vehicle control, standardized to GAPDH, FIG. 4), the “alkaline phosphatase (ALP) expression ratio” value is reported as “does not reduce the efficacy of the drug”. In addition, the “toxicity, overall pathologist assessment of liver and kidney” value in data set [3] is “No detectable toxicity was observed”.

Regarding “SVSEIQLMHNLGKHLNSMERVEWLRKKLQDVHNF [PTH(1-34)]”, the “duration of the cAMP response” value in data set [4] is recorded as “more prolonged response than PTHrP(1-36)”. Further, the “affinity for the R^0 state” value in data set [5] was “much higher affinity for R^0 than PTHrP(1-36)”.
